According to US20240360186A1, “Treatment Of Integrin-Related Disorders With Stapled Peptides” (Institute For Cancer Research d/b/a The Research Institute …, priority 2021, published 2024):
Entries after “also recorded” stand apart in the source; their conditions may differ. Bridge positions count the residues as written; N and C are the ends. Square brackets hold non-standard residues; d marks the D form. Peptide text beside a SMILES is read from it. S5 = C=CCCC[C@](C)(N)C(=O)O

Columns and labels:
[1] = target: T1, talin rod R7R8 domains (Mus musculus, UniProt P26039); assay: Fluorescent polarization (FP) binding assay, talin rod R7R8; details: S-TBS versus TBS, from FP Kd values
T1 construct: talin rod R7R8 and talin head (residues 1-430) were measured using fluorophore-labeled peptides and recombinantly expressed, purified talin proteins; made in house
T1 sequence (P26039 1359-1659 limits assumed): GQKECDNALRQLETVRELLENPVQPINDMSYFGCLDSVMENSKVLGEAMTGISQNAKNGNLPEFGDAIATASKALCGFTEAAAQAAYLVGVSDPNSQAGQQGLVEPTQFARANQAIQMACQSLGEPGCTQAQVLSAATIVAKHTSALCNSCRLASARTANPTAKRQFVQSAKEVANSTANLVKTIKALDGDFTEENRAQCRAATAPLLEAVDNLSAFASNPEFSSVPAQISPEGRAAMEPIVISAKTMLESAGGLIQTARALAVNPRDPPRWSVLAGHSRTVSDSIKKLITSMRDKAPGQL
Procedure: (§1) To assess the binding affinities of S-TBS with talin, the Kd of TBS and S-TBS peptides with talin rod R7R8 and talin head (residues 1-430) were measured using fluorophore-labeled peptides and recombinantly expressed, purified talin proteins by FP assays. […] This gain of affinity may be attributed to the C8 staple as it stabilizes the helical structure of TBS, and the enhanced hydrophobic interaction between S-TBS and talin rod. The enhanced binding of S-TBS to talin further validates the design strategy of using stapled peptides as a potent competitive inhibitor.
(§2) Fluorescent Polarization: Mixtures were prepared of purified talin proteins at a series concentration (R7R8: 0.2 μM to 20 μM; THD/b3-THD: 5 μM to 100 μM), or buffer only, with 20 nM FITC-labeled S-TBS (New England Peptide) in a buffer containing 20 mM HEPES, pH 7.5, 100 mM NaCl, and 2 mM DTT. After five minutes of incubation, 20 μl of the reaction mix was added to individual wells of a 384-well assay plate (Corning) and then measured fluorescence polarization at room temperature using a plate reader. A […] as emission polarization filters. FP signals were normalized against buffer-only background and then fit to a single-site (saturating) binding model using SigmaPlot (Systat Software).

[2] = target: T2, talin head (residues 1-430) (Mus musculus, UniProt P26039); assay: Fluorescent polarization (FP) binding assay, talin head
T2 construct: talin rod R7R8 and talin head (residues 1-430) were measured; made in house
Procedure: as §1, §2

[3] = system: CHO-A5 cells; assay: Cell permeability assay (flow cytometry uptake of fluorophore-labelled peptide); assay type: in vitro ADME
Procedure: Assessing membrane permeability: CHO-A5 cells were treated with FAM-labelled WT-TBS (1, 10, and 50 μM), or with FITC-labelled stapled-TBS (1, 10, and 50 μM), and incubated for 30 minutes at 37° C. The cells were washed twice with phosphate-buffered saline (PBS), harvested in trypsin-EDTA, and centrifuged at 2,000 rpm for 5 minutes. The cells were resuspended in PBS and quantified with an LSR flow cytometer using 30,000 cells per measurement.
A common challenge for peptidomimetic drugs that target intracellular proteins is the poor cell membrane permeability. To assess the effect of the C8 staple on cell permeability, FITC-labeled S-TBS were incubated with CHO cells at various concentration and examined S-TBS uptake by flow cytometry. […] The assay was then performed using lower doses of peptides and quantified the signals for statistical analyses. […] In contrast, TBS requires a concentration of at least 5 μM for cell uptake (FIG. 3, Panel B).
Cell permeability assay: CHO-A5 cells were plated in 6-well dishes, and then treated with fluorophore labeled TBS or S-TBS peptides at indicated concentrations for 30 minutes at 37° C. The cells were then washed twice with phosphate-buffered saline (PBS), detached by adding a mixture of trypsin and […] (“trypsin-EDTA”) and harvested by spinning at 2,000 rpm for 5 minutes. The cells were resuspended in PBS and quantified with an LSR flow cytometer (525/50 filter, 488 nm laser) using 30,000 cells per measurement.

[4] = system: integrin αIIbβ3; assay: Integrin activation assay, wild-type talin head domain; assay type: cell-based; details: CHO-A5 cells expressing GFP-tagged wild-type talin head domain; TBS 100 μM, S-TBS 10 and 100 μM, 30 minutes; PAC1 flow cytometry
Procedure: (§3) Assessing integrin activation: CHO-A5 cells were transfected with GFP-tagged talin-head domain (residues 1-430, WT or W359A) and incubated for 24 hours at 37° C. The cells were subsequently treated with WT-TBS at 100 μM or Staple-TBS (at 10 and 100 μM) for 30 minutes at 37° C. and washed twice with PBS, harvested in trypsin-EDTA, and centrifuged at 2,000 rpm for 5 minutes. The cells were incubated in Tyrode's buffer (136.9 mM NaCl, 10 mM HEPES, 5.5 mM glucose, 11.9 mM NaHCO3, 2.7 mM KCl, 0.5 mM CaCl2), 1.5 mM MgCl2, and 0.4 mM NaH2PO4, pH 7.4) containing PAC1 antibody for 1 hour at 30° C. and then stained with Alexa 647 (goat anti-mouse IgM) for 30 minutes at RT. The cells were quantified with an LSR flow cytometer using 30,000 cells per measurement.
(§4) The effect of S-TBS on talin-induced activation of integrin αIIbβ3 was examined. CHO-A5 cells that stably express integrin αIIbβ3 were transfected with a green fluorescent protein-tagged talin head domain, treated with S-TBS or TBS, and then subjected flow cytometry analysis for integrin αIIbβ3 activity. […]
(§5) Integrin activation assays: CHO-A5 cells were transfected with talin-head domain, wild-type or W359A, and incubated for 24 hours at 37° C. […] The cells were quantified with a Beckton, Dickenson & Co. Biosciences LSR flow cytometer (660/20 filter, 640 nm laser) using 30,000 cells per measurement.

[5] = system: integrin αIIbβ3; assay: Integrin activation assay, inactive talin head mutant THD-W359A; assay type: cell-based; details: CHO-A5 cells transfected with THD-W359A; TBS 100 μM, S-TBS 10 and 100 μM; PAC1 flow cytometry
Procedure: as §3, §4, §5

[6] = system: HEK-293 cells; assay: Cell toxicity assay, HEK-293; assay type: cell-based; details: 40 μM, treated one hour then washed away, viability at 24 and 48 hours
Procedure: (§6) The cell toxicity of the peptides was then examined. HEK, MCF-7, and HeLa were used. Cells were treated with S-TBS 40 μm for one hour. The S-TBS was then washed away and the viability measured at 24 and 48 hours. No impact on HEK, MCF-7, and HeLa cell growth was observed.

[7] = system: MCF-7 cells; assay: Cell toxicity assay, MCF-7; assay type: cell-based; details: 40 μM, treated one hour then washed away, viability at 24 and 48 hours
Procedure: as §6

[8] = system: HeLa cells; assay: Cell toxicity assay, HeLa; assay type: cell-based; details: 40 μM, treated one hour then washed away, viability at 24 and 48 hours
Procedure: as §6

[9] = system: CHO cell; assay: Cell toxicity, CHO cell growth; assay type: cell-based
[10] = system: Jurkat T-cell; assay: Cell toxicity, Jurkat T-cell growth; assay type: cell-based

fold stronger binding to R7R8 than TBS [1]: 6 fold
Kd ([2]; FP assay, fluorophore-labeled peptide, purified recombinant talin head (residues 1-430), read-out: Kd, talin head domain): 30.3 ± 4.8 µM
fold stronger binding to talin head than TBS ([2]; S-TBS versus TBS, from FP Kd values): 3.5 fold
fluorescence signal of treated cells (peptide uptake) compared with fluorophore-labelled TBS ([3]; CHO cells, 1, 10 and 50 μM, 30 minutes at 37° C., FITC-labeled S-TBS): significantly stronger signal
concentration giving significant cell uptake ([3]; CHO-A5 cells, lower doses, flow cytometry permeability index, fluorophore-labelled peptides): 500 nM
SMILES: CC[C@H](C)[C@H](NC(=O)[C@H](CC(=O)O)NC(=O)[C@H](CCC(=O)O)NC(=O)[C@@H](N)CC(N)=O)C(=O)N[C@@H](CC(=O)O)C(=O)N[C@@H](CCC(N)=O)C(=O)N[C@@H](CCSC)C(=O)N[C@@H](Cc1ccccc1)C(=O)N[C@@H](CO)C(=O)N[C@H](C(=O)N[C@@H](CC(C)C)C(=O)N[C@@H](CC(C)C)C(=O)NCC(=O)N[C@@H](CCC(=O)O)C(=O)N[C@@]1(C)CCCC=CCCC[C@@](C)(C(=O)N[C@@H](CCC(N)=O)C(=O)N[C@@H](CO)C(=O)O)NC(=O)[C@H](CC(C)C)NC(=O)[C@H](CC(C)C)NC(=O)[C@H](CC(=O)O)NC1=O)[C@@H](C)O [S-TBS, (Stp(15,19))H2N-NEDIDQMFSTLLGE(S5)DLL(S5)QS-OH] (H-NEDIDQMFSTLLGE[S5]DLL[S5]QS-OH; staple 15-19)
integrin αIIbβ3 activity (talin-induced activation) [4]: significantly suppresses integrin αIIbβ3 activity in a dose-dependent manner
integrin αIIbβ3 activity with inactive talin head THD-W359A [5]: No inhibitory effect
cell toxicity (viability / cell growth), HEK [6]: No impact; also recorded: minimal cell toxicity
cell toxicity (viability / cell growth), MCF-7 [7]: No impact; also recorded: minimal cell toxicity
cell toxicity (viability / cell growth), HeLa [8]: No impact; also recorded: minimal cell toxicity
impact on CHO cell growth [9]: no impact
impact on Jurkat T-cell growth [10]: no impact
